The record followed here is article PMC8983201 (Evidence-based Complementary and Alternative Medicine : eCAM, 2022).

Assay type in all cases: cell-based
For test [1], the system named is tested cancer cell lines. Description: RRA cytotoxicity, summary over the panel of tested cancer cell lines. The settings on record: all cell lines tested (Table 3 panel). The method, then: (§1) 18 cancer cell lines and normal hepatocyte AML12 were used in the present study. Cancer cell lines such as drug-sensitive leukemia CCRF-CEM and multidrug-resistant P-glycoprotein-overexpressing subline CEM/ADR5000 cells, breast cancer MDA-MB-231-pcDNA cells and its resistant subline MDA-MB-231-BCRP clone 23 cells, colon cancer HCT116 p53^+/+ cells and its knockout clone HCT116 p53^−/−, glioblastoma U87MG cells, and its resistant subline U87MG.ΔEGFR [7, 23, 24]. The maintenance of HepG2 cells and AML12 hepatocytes was also published. The CC531 rat colon carcinoma cells, B16-F1, B16-F10, A2058, SK-Mel505, MaMel-80a, MV3, SkMel-28, and Mel-2A, were previously reported.
(§2) Different types of human cancer cell lines were used in this study. The resazurin reduction assay (RRA) as previously described with similar experimental conditions to those reported earlier was used to measure the cell cytotoxicity. Fluorescence was measured on an Infinite M2000 Pro™ plate reader (Tecan, Germany) using an excitation wavelength of 544 nm and an emission wavelength of 590 nm. The viability was determined based on a comparison with untreated cells. The values representing the sample's concentrations required to inhibit 50% of cell proliferation (IC50) were calculated from a calibration curve by linear regression using Microsoft Excel 2013 [33, 34].

Test [2] concerns MaMel-80a (BRAF-V600E homozygous mutant melanoma). Description: RRA cytotoxicity, MaMel-80a. As to conditions: Homo sapiens, compounds. The method, then:
as §1, §2

In test [3] the test system is SKMel-28 (BRAF-V600E homozygous mutant). The test can be described thus: RRA cytotoxicity, SKMel-28. The settings on record: Homo sapiens, SK-MEL-28; SKMel-28, compounds. The method, then:
as §1, §2

In test [4] the test system is A2058 (BRAF-V600E heterozygous mutant). Description: RRA cytotoxicity, A2058. The settings on record: Homo sapiens; A2058, compounds. The method, then: as §1, §2
The subject of test [5] is Mel-2a (BRAF-V600E heterozygous mutant). The test can be described thus: RRA cytotoxicity, Mel-2a. As to conditions: Homo sapiens, compounds. The method, then: as §1, §2
In test [6] the test system is MV3 (BRAF wild type). The test can be described thus: RRA cytotoxicity, MV3. As to conditions: Homo sapiens; MV3, compounds. The method, then:
as §1, §2

The subject of test [7] is SKMel-505 BRAF wild-type melanoma cells. Description: RRA cytotoxicity, SKMel-505. The settings on record: Homo sapiens; SKMel-505, compounds. The method, then: as §1, §2
Test [8] relates to CC531 rat colon carcinoma cells. Description: RRA cytotoxicity, CC531. The settings on record: Colon carcinoma cell, CC531, compounds. The method, then:
as §1, §2

The test system of test [9] is B16-F1 murine melanoma. Description: RRA cytotoxicity, B16-F1. As to conditions: Mus musculus; B16-F1, compounds. The method, then: as §1, §2
Test [10] has as its system B16-F10 murine melanoma. Description: RRA cytotoxicity, B16-F10. The settings on record: Mus musculus; B16-F10, compounds. The method, then:
as §1, §2

Test [11] relates to CCRF-CEM leukemia cells. Description: Resazurin reduction assay (RRA) cytotoxicity, CCRF-CEM. As to conditions: Homo sapiens, doxorubicin. The method, then:
as §1, §2

For test [12], the system named is breast cancer MDA-MB-231-pcDNA cells. The test can be described thus: RRA cytotoxicity, MDA-MB-231-pcDNA. The settings on record: Homo sapiens, doxorubicin. The method, then: as §1, §2
In test [13] the test system is MDA-MB-231-BCRP clone 23 cells. The test can be described thus: RRA cytotoxicity, MDA-MB-231-BCRP. As to conditions: Homo sapiens, doxorubicin. The method, then:
as §1, §2

The test system of test [14] is HCT116 p53−/− cells. Description: RRA cytotoxicity, HCT116 (p53−/−). The settings on record: Homo sapiens, HCT-116, doxorubicin. The method, then:
as §1, §2

Test [15] has as its system glioblastoma U87MG cells. Description: RRA cytotoxicity, U87MG. The settings on record: Homo sapiens, U-87 MG, doxorubicin. The method, then:
as §1, §2

Test [16] relates to U87MG.ΔEGFR cells. Description: RRA cytotoxicity, U87MG.ΔEGFR. The settings on record: Homo sapiens, doxorubicin. The method, then: as §1, §2
Test [17] concerns HepG2 hepatocarcinoma cells. The test can be described thus: RRA cytotoxicity, HepG2. The settings on record: Homo sapiens; HepG2, doxorubicin column of Table 2.
Description: The resazurin reduction assay (RRA) as previously described [24, 32] with similar experimental conditions to those reported earlier [26–30] was used to measure the cell cytotoxicity. Fluorescence was measured on an Infinite M2000 Pro™ plate reader (Tecan, Germany) using an excitation wavelength of 544 nm and an emission wavelength of 590 nm. The viability was determined based on a comparison with untreated cells.
Test [18] relates to normal AML12 hepatocytes. The test can be described thus: RRA cytotoxicity, normal AML12 hepatocytes. As to conditions: Mus musculus; AML12, doxorubicin column of Table 2. The method, then:
as §1, §2

Structures are written as SMILES.

For orientation: IC50 means the point on the concentration scale where inhibition reaches its midpoint. Low readings indicate greater potency, high ones weaker potency. In turn, `CC(CCC1(O)OC2CC3C4CC=C5CC(OC6OC(CO)C(O)C(OC7OC(CO)C(O)C(O)C7O)C6OC6OC(C)C(O)C(O)C6O)CCC5(C)C4CCC3(C)C2C1C)COC1OC(CO)C(O)C(O)C1O` [Compound 3, (25R)-26-O-(β-D-galactopyranosyl)-furost-5-ene-3β, 22α, 26-trihydroxy-3-O-β-D-glucopyranosyl-(1 ⟶ 2)-[α-L-rhamnopyranosyl-(1 ⟶ 3)]-β-D-glucopyranoside] displayed an IC50 in test [1] of over 100 µM.
In the case of `C[C@@H]1CC[C@@]2(OC1)O[C@H]1C[C@H]3[C@@H]4CC=C5C[C@@H](O)CC[C@]5(C)[C@H]4CC[C@]3(C)[C@H]1[C@@H]2C` [Compound 5, diosgenin], the IC50 in test [2] is over 100 µM; in [3], over 100 µM; in [4] it was 27.1 ± 1.18 µM; in test [5], over 100 µM; in [6], over 100 µM; in [7], over 100 µM. The half-maximal inhibitory concentration (IC50) in test [8], in [9] and in [10] was over 100 µM each time.
Take `C[C@@H]1CC[C@@]2(OC1)O[C@H]1C[C@H]3[C@@H]4CC=C5C[C@@H](O[C@@H]6O[C@H](CO)[C@@H](O)[C@H](O)[C@H]6O)CC[C@]5(C)[C@H]4CC[C@]3(C)[C@H]1[C@@H]2C` [Compound 6, diosgenin-3-O-β-D-glucopyranoside]: the IC50 is over 100 µM in test [2]; over 100 µM in test [3]; 38.9 ± 2.78 µM in test [4]; over 100 µM in test [5]; over 100 µM in test [6]; over 100 µM in test [7]. In addition, the IC50 in test [8] is over 100 µM; in test [9] it was 79.2 ± 5.39 µM; in test [10], over 100 µM.
In turn, `C[C@@H]1CC[C@@]2(OC1)O[C@H]1C[C@H]3[C@@H]4CC=C5C[C@@H](O[C@@H]6O[C@H](CO)[C@@H](O[C@@H]7O[C@H](CO)[C@@H](O)[C@H](O)[C@H]7O)[C@H](O)[C@H]6O[C@@H]6O[C@@H](C)[C@H](O)[C@@H](O)[C@H]6O)CC[C@]5(C)[C@H]4CC[C@]3(C)[C@H]1[C@@H]2C` [Compound 7, deltonin] gave an IC50 in test [1] of over 100 µM.
Still for that read-out and setting: in the case of `CC(CCC1(O)OC2CC3C4CC=C5CC(OC6OC(CO)C(O)C(O)C6O)CCC5(C)C4CCC3(C)C2C1C)COC1OC(CO)C(O)C(O)C1O` [Compound 8, 26-O-β-D-glucopyranosyl-(22R,25R)-3β, 22, 26-trihydroxyfurost-5-ene-3-O-β-D-glucopyranoside] it was over 100 µM.
Turning to `COc1cccc2c1C(=O)c1c(O)c3c(c(O)c1C2=O)C[C@@](O)(C(=O)CO)C[C@@H]3O[C@H]1C[C@H](N)[C@H](O)[C@H](C)O1` [Doxorubicin, reference compound], the IC50 in test [11] came out at 0.02 µM; in [12] it was 0.13 ± 0.01 µM; in test [13], 0.79 ± 0.08 µM; in test [14], 1.78 ± 0.08 µM; in test [15], 0.26 ± 0.03 µM; in test [16], 0.98 ± 0.07 µM. For the same compound, the 50% inhibitory concentration (IC50) was 4.56 ± 0.48 µM in test [17]; 52.9 ± 4.09 µM in [18]; 8.66 ± 0.56 µM in test [2]; 2.14 ± 0.12 µM in [3]; 0.29 ± 0.04 µM in test [4]; 6.63 ± 0.41 µM in test [5]. The IC50 in test [6] was found to be 7.09 ± 0.59 µM; in test [7], 9.39 ± 1.01 µM; in test [8], 0.44 ± 0.23 µM; in [9], 0.22 ± 0.01 µM; in test [10], 0.24 ± 0.03 µM.
